Test results from ChEMBL document CHEMBL1201862, “PubChem BioAssay data set” (2004).
Active and inactive are the calls of the source.

How the values were obtained:
[1] = target: T1, Calpain-2 catalytic subunit (Sus scrofa, UniProt P43367); test: pig calpain II inhibitor potency, dose response, biochemical, fluorogenic peptide substrate (AID 1420); format: functional
T1 sequence (P43367 whole entry): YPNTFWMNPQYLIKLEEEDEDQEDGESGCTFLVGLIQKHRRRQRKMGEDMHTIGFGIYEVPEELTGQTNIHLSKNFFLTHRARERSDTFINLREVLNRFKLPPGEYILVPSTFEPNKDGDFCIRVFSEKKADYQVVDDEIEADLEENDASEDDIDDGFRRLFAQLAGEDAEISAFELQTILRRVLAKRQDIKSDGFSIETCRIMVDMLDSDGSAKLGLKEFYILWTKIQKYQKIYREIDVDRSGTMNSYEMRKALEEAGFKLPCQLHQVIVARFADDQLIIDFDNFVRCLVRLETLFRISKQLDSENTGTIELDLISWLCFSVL

Protein skinhead-1 = target: T2, Protein skinhead-1 (Caenorhabditis elegans, UniProt P34707); format: functional
T2 sequence (P34707 whole entry): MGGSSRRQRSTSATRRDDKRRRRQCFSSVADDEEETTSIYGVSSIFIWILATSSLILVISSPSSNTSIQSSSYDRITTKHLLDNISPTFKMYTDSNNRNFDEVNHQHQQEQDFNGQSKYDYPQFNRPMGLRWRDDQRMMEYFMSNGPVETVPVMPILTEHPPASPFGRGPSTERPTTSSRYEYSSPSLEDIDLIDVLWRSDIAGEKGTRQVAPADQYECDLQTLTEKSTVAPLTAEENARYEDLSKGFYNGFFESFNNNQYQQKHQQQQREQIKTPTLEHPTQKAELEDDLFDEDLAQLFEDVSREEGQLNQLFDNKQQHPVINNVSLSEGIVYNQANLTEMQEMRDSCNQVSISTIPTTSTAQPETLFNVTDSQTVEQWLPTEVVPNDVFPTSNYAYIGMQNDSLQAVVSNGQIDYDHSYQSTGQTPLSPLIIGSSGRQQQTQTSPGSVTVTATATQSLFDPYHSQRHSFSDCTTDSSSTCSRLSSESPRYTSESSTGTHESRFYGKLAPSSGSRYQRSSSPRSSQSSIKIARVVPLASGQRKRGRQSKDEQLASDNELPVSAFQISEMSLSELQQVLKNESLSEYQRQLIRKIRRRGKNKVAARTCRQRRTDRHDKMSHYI

[2] = Luminescence Cell-Based Dose Retest to Confirm Inhibitors of Cancer Stem Cells. [Related pubchem assays (depositor defined):AID2717, AID2721]; format: functional; conditions: Homo sapiens
Nonstructural protein 1 = Nonstructural protein 1 (Influenza A virus, UniProt Q194T2); format: functional, Influenza A virus (A/California/07/2009(H1N1))
Chain of Nonstructural protein 1 (Q194T2 whole entry): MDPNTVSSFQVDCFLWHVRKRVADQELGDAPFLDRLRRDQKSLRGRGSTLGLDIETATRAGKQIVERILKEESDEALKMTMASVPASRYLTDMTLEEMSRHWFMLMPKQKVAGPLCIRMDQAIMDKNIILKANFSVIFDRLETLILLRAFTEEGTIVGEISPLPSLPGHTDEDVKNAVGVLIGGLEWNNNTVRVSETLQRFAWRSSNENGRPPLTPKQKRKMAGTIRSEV

INS1 = test: beta cell apoptosis inhibitors, cytokine rescue, dose response, luminescence, retest (AID 449756); format: functional, cell-based; conditions: Rattus norvegicus;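 note: cell death triggered by IL-1 beta plus TNF-alpha plus IFN-gamma mixture; protective hits raise ATP signal compared with cytokine alone wells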
[3] = target: T3, Heat shock factor protein 1 (Mus musculus, UniProt P38532); test: HSF1 potentiators in luciferase reporter cells, confirmation, cell-based, NIH3T3, luminescence, dose retest (AID 435004); format: functional;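 note: stress induced by proteasome inhibitor MG132 added 30 min after compound; luciferase reporter driven by HSF1 response element in NIH3T3 cells; actives raise luminescence as potentiators of the MG132 stress response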
T3 sequence (P38532 whole entry): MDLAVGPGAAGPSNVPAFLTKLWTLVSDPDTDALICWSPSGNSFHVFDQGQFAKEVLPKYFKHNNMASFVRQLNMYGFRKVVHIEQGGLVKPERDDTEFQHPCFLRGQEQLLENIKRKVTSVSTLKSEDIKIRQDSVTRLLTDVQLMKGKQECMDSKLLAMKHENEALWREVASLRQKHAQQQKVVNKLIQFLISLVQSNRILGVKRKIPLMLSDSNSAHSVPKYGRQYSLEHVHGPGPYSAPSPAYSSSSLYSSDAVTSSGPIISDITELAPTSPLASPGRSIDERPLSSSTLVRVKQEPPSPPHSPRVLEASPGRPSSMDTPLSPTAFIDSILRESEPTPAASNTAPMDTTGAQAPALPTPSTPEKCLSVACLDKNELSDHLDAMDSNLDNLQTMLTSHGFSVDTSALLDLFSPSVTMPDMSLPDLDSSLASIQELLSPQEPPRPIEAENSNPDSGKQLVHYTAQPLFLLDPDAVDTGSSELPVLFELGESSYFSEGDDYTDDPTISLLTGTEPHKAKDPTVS

Protein RecA = target: T4, Protein RecA (Mycobacterium tuberculosis, UniProt P9WHJ3); test: Fluorescence Cell-Free Homogeneous Dose Retest to Identify Inhibitors of RecA-Intein Splicing Activity. [Related pubchem assays (depositor defined):AID2097, AID2223, AID489010, AID492950]; format: functional
T4 sequence (P9WHJ3 whole entry): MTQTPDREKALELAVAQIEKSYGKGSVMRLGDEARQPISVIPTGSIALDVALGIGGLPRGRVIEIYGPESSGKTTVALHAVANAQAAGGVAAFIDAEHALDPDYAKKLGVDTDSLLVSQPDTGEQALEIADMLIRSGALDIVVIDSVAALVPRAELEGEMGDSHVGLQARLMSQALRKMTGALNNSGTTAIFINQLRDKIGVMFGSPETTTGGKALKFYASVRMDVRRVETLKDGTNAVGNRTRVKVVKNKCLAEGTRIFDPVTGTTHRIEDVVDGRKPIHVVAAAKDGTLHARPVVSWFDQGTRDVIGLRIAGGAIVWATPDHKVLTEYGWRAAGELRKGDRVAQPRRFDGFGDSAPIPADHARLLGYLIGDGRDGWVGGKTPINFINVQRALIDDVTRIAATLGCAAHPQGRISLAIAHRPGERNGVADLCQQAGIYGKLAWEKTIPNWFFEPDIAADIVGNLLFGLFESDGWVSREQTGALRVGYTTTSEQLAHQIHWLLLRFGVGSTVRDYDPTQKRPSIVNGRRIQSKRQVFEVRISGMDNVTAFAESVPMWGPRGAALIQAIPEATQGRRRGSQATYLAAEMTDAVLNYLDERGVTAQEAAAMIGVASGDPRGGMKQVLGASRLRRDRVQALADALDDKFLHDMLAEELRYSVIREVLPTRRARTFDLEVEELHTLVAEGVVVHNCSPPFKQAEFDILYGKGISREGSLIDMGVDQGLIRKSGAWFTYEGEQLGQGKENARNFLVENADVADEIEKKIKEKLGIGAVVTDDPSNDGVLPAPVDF

[4] = target: T5, Replicative DNA helicase DnaB (Mycobacterium tuberculosis, UniProt P9WMR3); test: DnaB intein splicing inhibitors, dose response, biochemical, cell-free fluorescence (AID 449749); format: functional
T5 sequence (P9WMR3 whole entry): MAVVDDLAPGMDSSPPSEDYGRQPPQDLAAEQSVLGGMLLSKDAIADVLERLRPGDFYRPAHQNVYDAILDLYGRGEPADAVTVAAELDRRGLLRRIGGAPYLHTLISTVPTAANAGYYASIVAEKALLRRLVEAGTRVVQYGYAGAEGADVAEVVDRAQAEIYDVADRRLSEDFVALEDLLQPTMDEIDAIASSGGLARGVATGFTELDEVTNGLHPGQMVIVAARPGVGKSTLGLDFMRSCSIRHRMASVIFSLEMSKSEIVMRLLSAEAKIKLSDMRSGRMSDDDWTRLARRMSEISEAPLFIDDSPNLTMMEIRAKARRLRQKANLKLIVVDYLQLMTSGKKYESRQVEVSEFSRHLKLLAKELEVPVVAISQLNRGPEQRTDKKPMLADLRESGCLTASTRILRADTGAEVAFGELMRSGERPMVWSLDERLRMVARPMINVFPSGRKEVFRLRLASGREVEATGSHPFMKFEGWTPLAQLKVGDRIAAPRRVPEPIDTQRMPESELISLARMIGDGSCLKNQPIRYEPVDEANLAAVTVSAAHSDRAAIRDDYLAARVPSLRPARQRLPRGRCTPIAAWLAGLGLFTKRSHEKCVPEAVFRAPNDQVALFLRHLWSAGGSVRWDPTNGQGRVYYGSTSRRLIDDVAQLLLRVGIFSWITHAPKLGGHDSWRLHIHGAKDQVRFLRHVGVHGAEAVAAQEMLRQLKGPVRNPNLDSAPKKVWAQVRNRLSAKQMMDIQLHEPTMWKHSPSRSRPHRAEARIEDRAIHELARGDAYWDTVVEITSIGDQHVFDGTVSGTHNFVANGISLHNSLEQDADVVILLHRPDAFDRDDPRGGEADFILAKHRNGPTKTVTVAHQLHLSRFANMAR

Fatty acid synthase [5] = target: T6, Fatty acid synthase (Homo sapiens, UniProt P49327); test: FAS thioesterase domain inhibitors, dose response, biochemical, kinetic fluorescence intensity (AID 624326); format: functional;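 note: rate of fluorescence rise from hydrolysis of a fluorogenic O-methyl fluorescein ester substrate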
T6 sequence (P49327 whole entry, the tested form may be a part): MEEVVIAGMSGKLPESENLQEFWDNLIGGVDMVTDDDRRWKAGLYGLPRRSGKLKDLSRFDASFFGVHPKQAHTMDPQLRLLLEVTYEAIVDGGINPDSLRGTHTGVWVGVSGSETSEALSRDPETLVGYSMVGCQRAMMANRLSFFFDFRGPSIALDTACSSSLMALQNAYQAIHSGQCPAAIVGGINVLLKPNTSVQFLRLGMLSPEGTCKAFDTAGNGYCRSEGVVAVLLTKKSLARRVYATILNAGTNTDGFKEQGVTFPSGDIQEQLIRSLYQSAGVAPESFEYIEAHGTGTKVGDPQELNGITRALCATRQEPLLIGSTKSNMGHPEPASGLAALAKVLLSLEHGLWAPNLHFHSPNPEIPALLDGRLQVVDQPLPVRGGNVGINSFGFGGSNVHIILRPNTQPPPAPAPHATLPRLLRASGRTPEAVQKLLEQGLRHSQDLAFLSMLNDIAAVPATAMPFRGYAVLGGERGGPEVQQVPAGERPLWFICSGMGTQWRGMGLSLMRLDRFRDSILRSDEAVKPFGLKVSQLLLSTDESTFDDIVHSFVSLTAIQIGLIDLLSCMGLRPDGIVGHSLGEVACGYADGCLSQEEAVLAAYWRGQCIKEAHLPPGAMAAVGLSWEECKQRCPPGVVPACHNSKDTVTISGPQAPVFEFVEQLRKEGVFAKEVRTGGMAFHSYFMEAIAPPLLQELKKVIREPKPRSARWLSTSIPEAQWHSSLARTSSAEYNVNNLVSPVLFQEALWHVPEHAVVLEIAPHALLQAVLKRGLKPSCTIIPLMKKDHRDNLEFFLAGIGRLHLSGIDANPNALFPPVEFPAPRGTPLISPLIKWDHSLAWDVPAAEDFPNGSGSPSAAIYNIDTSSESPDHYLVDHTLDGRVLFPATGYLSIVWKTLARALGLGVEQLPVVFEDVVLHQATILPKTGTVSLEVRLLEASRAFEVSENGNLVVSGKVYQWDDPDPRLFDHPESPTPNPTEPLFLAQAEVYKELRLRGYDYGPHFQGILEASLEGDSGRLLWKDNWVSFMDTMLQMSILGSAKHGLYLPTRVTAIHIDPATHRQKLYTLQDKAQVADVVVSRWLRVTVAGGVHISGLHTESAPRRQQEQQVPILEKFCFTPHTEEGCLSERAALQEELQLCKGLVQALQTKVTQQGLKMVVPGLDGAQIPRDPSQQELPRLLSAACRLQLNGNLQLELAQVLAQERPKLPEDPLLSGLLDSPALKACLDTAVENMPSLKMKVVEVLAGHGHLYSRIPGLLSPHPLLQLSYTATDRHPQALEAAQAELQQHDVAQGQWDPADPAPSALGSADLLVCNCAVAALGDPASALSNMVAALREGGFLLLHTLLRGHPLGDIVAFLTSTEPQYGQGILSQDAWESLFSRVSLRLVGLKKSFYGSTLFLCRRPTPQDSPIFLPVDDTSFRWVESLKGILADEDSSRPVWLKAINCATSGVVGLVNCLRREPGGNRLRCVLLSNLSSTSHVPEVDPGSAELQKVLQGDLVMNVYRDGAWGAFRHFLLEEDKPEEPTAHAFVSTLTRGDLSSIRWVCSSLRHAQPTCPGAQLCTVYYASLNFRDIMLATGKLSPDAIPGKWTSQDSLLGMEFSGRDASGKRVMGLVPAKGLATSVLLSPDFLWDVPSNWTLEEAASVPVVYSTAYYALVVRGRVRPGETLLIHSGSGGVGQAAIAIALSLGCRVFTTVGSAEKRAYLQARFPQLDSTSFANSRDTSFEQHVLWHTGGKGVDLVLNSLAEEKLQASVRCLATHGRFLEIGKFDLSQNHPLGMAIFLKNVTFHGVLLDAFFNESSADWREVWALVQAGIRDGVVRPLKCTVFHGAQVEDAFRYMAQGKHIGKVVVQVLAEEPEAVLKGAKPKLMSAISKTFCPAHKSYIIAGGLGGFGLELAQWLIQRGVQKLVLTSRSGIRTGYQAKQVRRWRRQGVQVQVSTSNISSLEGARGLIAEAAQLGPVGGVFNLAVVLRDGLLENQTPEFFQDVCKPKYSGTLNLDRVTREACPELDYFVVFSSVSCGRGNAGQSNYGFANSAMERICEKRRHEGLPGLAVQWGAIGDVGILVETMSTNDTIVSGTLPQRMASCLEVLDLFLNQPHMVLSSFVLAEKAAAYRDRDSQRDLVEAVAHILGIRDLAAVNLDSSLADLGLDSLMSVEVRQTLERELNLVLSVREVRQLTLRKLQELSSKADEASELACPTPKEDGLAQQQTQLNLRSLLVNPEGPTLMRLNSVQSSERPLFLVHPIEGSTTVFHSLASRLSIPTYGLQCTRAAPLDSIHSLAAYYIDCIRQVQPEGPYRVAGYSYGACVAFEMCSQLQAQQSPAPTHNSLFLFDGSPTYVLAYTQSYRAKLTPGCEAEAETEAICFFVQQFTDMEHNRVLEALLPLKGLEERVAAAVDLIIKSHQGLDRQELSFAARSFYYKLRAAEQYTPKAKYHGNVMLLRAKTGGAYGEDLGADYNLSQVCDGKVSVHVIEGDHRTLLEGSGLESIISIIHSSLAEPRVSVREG

Fatty acid synthase [6] = target: T6, Fatty acid synthase; test: FAS thioesterase domain inhibitors, dose response, biochemical, endpoint fluorescence intensity, uHTS hits (AID 624327); format: functional;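 note: fluorescence from hydrolysis of an O-methyl fluorescein acyl ester substrate by the enzyme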
[7] = target: Luciferin 4-monooxygenase (Photinus pyralis, UniProt P08659); test: firefly luciferase enzyme inhibitors, dose response, biochemical, luminescence (AID 1891)
Chain of Luciferin 4-monooxygenase (P08659 whole entry): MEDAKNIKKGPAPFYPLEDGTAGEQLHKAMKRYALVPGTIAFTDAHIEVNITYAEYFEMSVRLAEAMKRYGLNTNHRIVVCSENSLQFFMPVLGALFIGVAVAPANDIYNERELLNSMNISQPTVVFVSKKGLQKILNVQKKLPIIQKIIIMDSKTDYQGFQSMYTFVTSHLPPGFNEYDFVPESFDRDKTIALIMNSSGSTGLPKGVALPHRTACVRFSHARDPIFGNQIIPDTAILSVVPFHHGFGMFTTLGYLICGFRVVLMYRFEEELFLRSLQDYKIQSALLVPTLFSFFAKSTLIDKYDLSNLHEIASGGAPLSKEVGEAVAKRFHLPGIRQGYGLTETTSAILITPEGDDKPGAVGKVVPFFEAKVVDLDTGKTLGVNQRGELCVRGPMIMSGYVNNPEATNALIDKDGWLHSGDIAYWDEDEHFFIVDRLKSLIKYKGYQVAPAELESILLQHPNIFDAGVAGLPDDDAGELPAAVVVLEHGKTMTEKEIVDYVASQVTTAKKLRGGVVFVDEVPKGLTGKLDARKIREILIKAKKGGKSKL

[8] = Luminescence Cell-Based Dose Confirmation HTS to Identify Inhibitors of Platelet Dense Granule Release. [Related pubchem assays: 1663 (Primary HTS), 1678 (Summary of Project)]; format: functional
[9] = cytotoxicity toward NIH3T3 fibroblasts, dose response, counter-screen, cell-based, ATP luminescence, mouse fibroblasts (AID 2010); format: functional;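 note: cells exposed to compound for about 90 hours before reading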
[10] = inhibitors of intracellular T. cruzi replication, confirmation, NIH3T3 host cells, beta-gal luminescence (AID 2044); format: functional, cell-based;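 note: intracellular parasites grown in NIH/3T3 mouse fibroblasts as host cells; luminescent beta-galactosidase reporter signal from transgenic T. cruzi replicating inside host cells; inhibitors lower the luminescence signal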

## Cc1nn(-c2ccc(F)cc2)c2sc(C(=O)N3CCCCCC3)cc12
[1]
  IC50: > 50 µM (not active)
Protein skinhead-1
  IC50: > 100 µM (inactive)

## CCOC(=O)N1CCN(c2ccc(C(=O)c3cccc(F)c3)cc2)CC1
[1]
  IC50: 14.3 µM (not active)
[2]
  AC50: 3.36 µM (active)

## C=CCSc1nnc(-c2ccc([N+](=O)[O-])cc2)o1
[1]
  IC50: 34.3 µM (not active)

## NC(=S)N/N=C/c1ccccc1O
Nonstructural protein 1
  IC50: 14.1 µM (active)
INS1
  AC50: 945 nM (active)

## COc1cc(C2CC(=O)Oc3c(C(CCN4CCCC(C)C4)c4ccc(N(C)C)cc4)c(OC)cc(OC)c32)cc(OC)c1OC (stereo unspecified)
Nonstructural protein 1
  IC50: 28.5 µM (active)

## COCCNC(=S)N/N=C/c1ccc(N2CCOCC2)cc1
[3]
  EC50: > 260 µM (inactive)

## COc1cc(OC)cc(-c2nnc(Sc3ccc(C=O)cc3[N+](=O)[O-])o2)c1
Protein RecA
  EC50: 2.04 µM (active)
[3]
  EC50: > 260 µM (inactive)
[4]
  AC50: 6.58 µM (active)

## O=[N+]([O-])c1cc(Br)c2nsnc2c1N1CCOCC1
Nonstructural protein 1
  IC50: 27.5 µM (active)

## O=C(NNS(=O)(=O)c1ccc([N+](=O)[O-])cc1)c1ccc([N+](=O)[O-])cc1
Fatty acid synthase [5]
  IC50: 4.24 µM (active)
Fatty acid synthase [6]
  IC50: 4.95 µM (active)

## COC(=O)N1C(=O)[C@](CC(C)C)(c2ccccc2)N1C(=O)OC
Fatty acid synthase [5]
  IC50: 0.385 µM (active)
Fatty acid synthase [6]
  IC50: 0.544 µM (active)

## CCCCC(=O)OCC(=O)c1[nH]c(C)c(C(C)=O)c1C
[1]
  IC50: 21.5 µM (not active)
[7]
  EC50: > 112 µM (not active)
[8]
  EC50: 816 nM (active)

## CC(C)Cn1c(SCC(=O)NC(=O)Nc2ccc3c(c2)OCCO3)nc2ccccc2c1=O
[1]
  IC50: > 50 µM (not active)

## O=[N+]([O-])c1cc(/C=N/Nc2nc(N3CCCCC3)nc(N3CCCCC3)n2)ccc1O
Nonstructural protein 1
  IC50: > 100 µM (active)

## C=C1CCC[C@]2(C)C[C@H]3OC(=O)C(CNC(CC)CO)[C@H]3CC12 (stereo partly specified)
[3]
  EC50: > 260 µM (inactive)

## CC1CC(=O)c2cnc(NCC3CCCO3)nc2C1 (stereo unspecified)
[1]
  IC50: 6.33 µM (not active)

## COc1ccc(C(=O)NCC(=O)OCC(=O)c2ccc3c(c2)NC(=O)CO3)cc1
[3]
  EC50: > 260 µM (inactive)

## O=C(COC(=O)c1cc([N+](=O)[O-])ccc1N1CCOCC1)Nc1c(Cl)cccc1C(F)(F)F
Fatty acid synthase [5]
  IC50: 8.39 µM (active)
Fatty acid synthase [6]
  IC50: 8.05 µM (active)

## O=C(O)c1cccnc1Sc1ccccc1
[3]
  EC50: > 260 µM (inactive)

## c1ccc(CCc2ccncc2)cc1
[9]
  EC50: > 60 µM (not active)
[10]
  EC50: 1.52 µM (active)
[3]
  EC50: > 260 µM (inactive)

## COc1ccc(C2=CC(=O)CC(c3ccc(F)cc3)C2)cn1 (stereo unspecified)
[3]
  EC50: > 260 µM (inactive)

## FC(F)(F)c1cccc(N2CCN(C(S)=NC3CCCC3)CC2)c1
[1]
  IC50: 7.79 µM (not active)

## COc1c(Br)cc(Br)cc1C(=O)O
[3]
  EC50: > 260 µM (inactive)

## C[C@@H]1CN([C@H](C)CO)C(=O)c2cccc(NC(=O)NC3CCCCC3)c2O[C@@H]1CN(C)C(=O)Nc1ccc(C(F)(F)F)cc1
Fatty acid synthase [5]
  IC50: 2.26 µM (active)
Fatty acid synthase [6]
  IC50: 2.09 µM (active)

## O=S(=O)(c1ccc(Cl)cc1)N1CCCC(c2nc(-c3ccc(F)cc3)no2)C1 (stereo unspecified)
Fatty acid synthase [5]
  IC50: 6.27 µM (active)
Fatty acid synthase [6]
  IC50: 5.59 µM (active)

## COC(=O)c1cccc(C(=O)N2CCCC(C(=O)c3ccccc3OC)C2)c1 (stereo unspecified)
[3]
  EC50: > 260 µM (inactive)

## Cc1cccc(-n2cnc(C(=O)NN=C(S)Nc3ccc(Cl)cc3)c2)n1
Nonstructural protein 1
  IC50: 8.22 µM (active)

## Cc1ccccc1CCN(C(=O)Cn1nnc2ccccc21)C(C(=O)NCC1CCCO1)c1nc2ccccc2n1C (stereo unspecified)
[1]
  IC50: 29.6 µM (not active)
